Laboratory results as given in patent US10851412B2, “Cell potency assay for therapeutic potential” (FATE THERAPEUTICS, INC., priority 2013, dated 2020).

Tested on: Human umbilical cord blood
Assay: Cell potency assay: real-time PCR signature gene expression score of treated cord blood
Format: cell-based
Protocol: Human umbilical cord blood was treated ex vivo with 16,16, dimethyl prostaglandin E2 (dmPGE2) prior to transplantation. Real-time PCR transcript quantitation of gene expression from the treated cord blood cells was used to determine the therapeutic potential of the cells. RNA was extracted from an aliquot (100 uL) of the treated cord blood cells using the PicoPure RNA Isolation kit (Life Technologies) using the manufacturer's recommended protocol. Total RNA was quantified using the Nanodrop 2000 Spectrophotometer (Thermo Scientific). Complimentary DNA (cDNA) was reverse transcribed from 50 ng of total RNA using the High-Capacity cDNA Reverse Transcription Kit (Life Technologies).
Quantitative PCR was performed in triplicate for each gene in the amplified cDNA using StepOne Plus (Applied Biosystems) and Taqman gene expression assays (Life Technologies) and 40 cycles of real-time PCR. Results of the real-time PCR were analyzed using the StepOne Software v2.1 analysis package (Applied Biosystems). Expression values of the transcripts were normalized to the Taqman gene expression average for the housekeeping genes, GAPDH and HPRT1, to determine the relative expression levels (ΔCt values). […]

With `CCCCC(C)(C)[C@H](O)/C=C/[C@H]1[C@H](O)CC(=O)[C@@H]1C/C=C\CCCC(=O)O` [dmPGE2, 16,16, dimethyl prostaglandin E2] the “gene expression in the group of signature genes (real-time PCR)” value (human umbilical cord blood after a two hour treatment) was “Increased gene expression” and the “gene expression score (standardized Euclidean distance model vs training set)” value (human umbilical cord blood treated ex vivo, about two hours at 37° C. with 10 μM dmPGE2, test samples n=10, mean +/- SD, positive scores cluster with samples having therapeutic potential) was 16.8+/−2.2.
